Several values for one entry are separate records, joined by “and”; a condition that tells them apart may be missing. Identical values can stand only once.
How the values were obtained:
hH4R [1] = biological target: T1, hH4R (Homo sapiens, UniProt Q9H3N8); assay: cAMP accumulation assay (LANCE Ultra cAMP, CHO-K1 cells stably expressing hH4R); format: cell-based; parameters: expressed in transfected cells; conditions: for IC50: forskolin 10 µM, histamine 140 nM, CHO-K1 hH4R cells, read-out: cAMP hH4R IC50 ± SEM; for Kb: calculated from IC50 by Leff–Dougall variant of Cheng–Prusoff equation, read-out: pKb cAMP ± SEM (converted)
T1 sequence (Q9H3N8 whole entry): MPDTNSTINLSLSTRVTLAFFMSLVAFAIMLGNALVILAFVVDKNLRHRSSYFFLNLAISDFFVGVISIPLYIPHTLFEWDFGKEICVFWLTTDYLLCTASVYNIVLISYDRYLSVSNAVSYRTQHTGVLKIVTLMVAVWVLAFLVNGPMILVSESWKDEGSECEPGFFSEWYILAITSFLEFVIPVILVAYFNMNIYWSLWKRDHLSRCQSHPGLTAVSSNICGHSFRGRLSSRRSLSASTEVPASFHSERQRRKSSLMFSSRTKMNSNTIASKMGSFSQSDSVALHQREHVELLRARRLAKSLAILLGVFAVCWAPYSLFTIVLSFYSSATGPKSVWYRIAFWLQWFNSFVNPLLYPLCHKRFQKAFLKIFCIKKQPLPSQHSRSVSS
Procedure: Intrinsic activity via the Gα subunit was measured using a LANCE Ultra cAMP detection kit and CHO-K1 cells stably expressing hH4R. Adenyl cyclase was stimulated by forskolin (10 µM).
Intrinsic activity in G protein-dependent pathway was measured with homogenous TR-FRET immunoassay, using LANCE Ultra cAMP kit and CHO-K1 H4R cell line or γ-irradiated recombinant CHO-K1 H4R cells (all from PerkinElmer). […] If the CHO-K1 H4R cell line was used it had been cultivated in DMEM/F12 10% FBS 400 µg/mL geneticin and passaged three times a week. […] The antagonist activity was measured in a white, opaque, 384-well microplate (PerkinElmer) with a total volume of 20 µL. […] After incubation, 5 µL of europium chelate-labelled cAMP tracer and 5 µl of ULight-labelled anti-cAMP mAb working solutions were added, mixed and incubated for 1 h. TR-FRET signal was read using a microplate reader (PerkinElmer, Waltham, MA, USA).

hH4R [2] = biological target: T1, hH4R; assay: as above; format: cell-based; parameters: expressed in transfected cells; conditions: antagonist mode
hH4R [3] = biological target: T1, hH4R; assay: β-arrestin recruitment assay (LiveBLAzer, Tango-H4-bla U2OS cells); format: cell-based; parameters: expressed in transfected cells; host or cells: Tango-H4-bla U2OS cells; conditions: for IC50 / β-arrestin hH4R % of max. Antagonist Activity at 10 µM: antagonist mode; for IC50: histamine 500 nM (EC80), Tango-H4-bla U2OS cells, read-out: β-arrestin hH4R IC50 ± SEM; for Kb: calculated from IC50 by Leff–Dougall variant of Cheng–Prusoff equation, read-out: pKb β-arrestin ± SEM (converted)
Procedure: Compounds were tested using LiveBLAzer^TM assay and Tango-H4-bla U2OS cells, allowing the estimation of the percentage of β-arrestin recruitment in response to tested treatments.
All used media and reagents except DMSO and tested compounds were purchased from ThermoFisher Scientific, Waltham, MA, USA. DMSO was from CarlRoth (Karlsruhe, Germany) and histamine was from Sigma Aldrich (Darmstadt, Germany). […] The day before the experiment cells were collected from the culture flask with trypsin and seeded in 384 well black-wall, clear-bottom plate (PerkinElmer, Waltham, MA, USA) in concentration 10,000 cells/well in FreeStyle medium. After 24 h of incubation, the cells were checked under the microscope and the dilutions of tested compounds were prepared and added to the wells. In agonist mode compounds were added to the wells and plates were placed in the incubator (HERAcell240, Heraeus, Hanau, Germany) for 16 h. In antagonist mode, first, the compounds were added to the wells, plates were incubated for 30 min, then histamine solution (corresponding to EC80—500 nM) was added and plates were put in the incubator for 16 h. After this time β-lactamase substrate mixture was prepared and added to wells (8 µL/well). Cells were incubated for 2 h at room temperature in the dark then the signal was read using an EnSpire microplate reader (PerkinElmer, Waltham, MA, USA). Drawing of dose-dependent curves and IC50 calculation for compounds were made using GraphPad Prism 6 (GraphPad Software, San Diego, CA, USA).

[4] = biological target: T2, human histamine H4 receptor (Homo sapiens, UniProt Q9H3N8); assay: [3H]histamine displacement assay, membranes of Sf9 cells expressing hH4R with Gαi2 and Gβ1γ2; format: binding; conditions: for Ki: Sf9 membranes, mean within 95% CI; for inhibition at 1 µM: per cent of inhibition at 1 μM, read-out: hH4R inh. at 1 μM
T2 construct: made in house; host or cells: Sf9 cells (membrane preparations)
T2 sequence (Q9H3N8 whole entry): as above
Procedure: The affinity of compounds 2–20 for hH4R was evaluated in a binding assay as previously described. [^3H]Histamine was used as a radioligand and hH4R was expressed in Sf9 cells with G protein Gαi2 and Gβ1γ2 subunits. The pharmacological results represented as Ki values are listed in Table 1 (for alicyclic derivatives) and Table 2 (for aliphatic derivatives). […] Results depended on the substituent in the four positions of a triazine (a main structure).
Affinities of all triazine derivatives were determined in a [^3H] histamine (f.c. 10 nM) displacement assay using membrane preparations from Sf9 cells expressing human H4R and co-expressed with Gαi2 and Gβ1γ2 subunits as described previously. Nonspecific binding was determined in the presence of unlabelled JNJ7777120 ([…]).

## CN1CCN(c2nc(N)nc(C3CC3)n2)CC1 [Compound 2, 4-Cyclopropyl-6-(4-methylpiperazin-1-yl)-1,3,5-triazin-2-amine]
other
  melting point: 156 to 159 °C
hH4R [1]; antagonist mode
  IC50: 847 ± 53 nM
hH4R [1]
  Kb: 302 nM
hH4R [2]
  cAMP hH4R % of max. Antagonist Activity at 10 µM: 99%
hH4R [3]
  IC50: 287 ± 30 nM
  β-arrestin hH4R % of max. Antagonist Activity at 10 µM: 96%
  Kb: 47.9 nM
[4]
  Ki: 574 nM

## CN1CCN(c2nc(N)nc(C3CCC3)n2)CC1 [Compound 3, 4-Cyclobutyl-6-(4-methylpiperazin-1-yl)-1,3,5-triazin-2-amine]
other
  melting point: 127 to 132 °C
hH4R [1]; antagonist mode
  IC50: 104 ± 17 nM
hH4R [1]
  Kb: 37.2 nM
hH4R [2]
  cAMP hH4R % of max. Antagonist Activity at 10 µM: 109%
hH4R [3]
  IC50: 100 ± 15 nM
  β-arrestin hH4R % of max. Antagonist Activity at 10 µM: 87%
  Kb: 16.6 nM
[4]
  Ki: ~200 nM and 200 nM

## CN1CCN(c2nc(N)nc(C3CCCC3)n2)CC1 [Compound 4, 4-Cyclopentyl-6-(4-methylpiperazin-1-yl)-1,3,5-triazin-2-amine]
other
  melting point: 163 to 169 °C
hH4R [1]; antagonist mode
  IC50: 102 ± 2 nM
hH4R [1]
  Kb: 36.3 nM
hH4R [2]
  cAMP hH4R % of max. Antagonist Activity at 10 µM: 95%
hH4R [3]
  IC50: 68.8 ± 2 nM
  β-arrestin hH4R % of max. Antagonist Activity at 10 µM: 95%
  Kb: 11.5 nM
[4]
  Ki: 1240 nM

## CN1CCN(c2nc(N)nc(C3CCCCC3)n2)CC1 [Compound 5, 4-Cyclohexyl-6-(4-methylpiperazin-1-yl)-1,3,5-triazin-2-amine]
other
  melting point: 133 to 138 °C
hH4R [1]; antagonist mode
  IC50: 219 ± 24 nM
hH4R [1]
  Kb: 75.9 nM
hH4R [2]
  cAMP hH4R % of max. Antagonist Activity at 10 µM: 98%
hH4R [3]
  IC50: 101 ± 10 nM
  β-arrestin hH4R % of max. Antagonist Activity at 10 µM: 92%
  Kb: 16.6 nM
[4]
  Ki: 432 nM

## CN1CCN(c2nc(N)nc(CC3C=CCC3)n2)CC1 (centres unmarked) [Compound 7, 4-(Cyclopent-2-enylmethyl)-6-(4-methylpiperazin-1-yl)-1,3,5-triazin-2-amine]
other
  melting point: 166 to 169 °C
hH4R [1]; antagonist mode
  IC50: 33 ± 2 nM
hH4R [1]
  Kb: 11.5 nM
hH4R [2]
  cAMP hH4R % of max. Antagonist Activity at 10 µM: 104%
hH4R [3]
  IC50: 14 ± 1 nM
  β-arrestin hH4R % of max. Antagonist Activity at 10 µM: 103%
  Kb: 2.34 nM
[4]
  Ki: 96 nM

## CN1CCN(c2nc(N)nc(CC34CC5CC(CC(C5)C3)C4)n2)CC1 [Compound 9, 4-(1-Adamantylmethyl)-6-(4-methylpiperazin-1-yl)-1,3,5-triazin-2-amine]
other
  melting point: 200 to 201 °C
[4]
  inhibition at 1 µM: 43%

## CCCCc1nc(N)nc(N2CCN(C)CC2)n1 [Compound 10, 4-Butyl-6-(4-methylpiperazin-1-yl)-1,3,5-triazin-2-amine]
other
  melting point: 117 to 118 °C
hH4R [1]; antagonist mode
  IC50: 445 ± 10 nM
hH4R [1]
  Kb: 158 nM
hH4R [2]
  cAMP hH4R % of max. Antagonist Activity at 10 µM: 105%
hH4R [3]
  IC50: 82 ± 5 nM
  β-arrestin hH4R % of max. Antagonist Activity at 10 µM: 96%
  Kb: 13.5 nM
[4]
  Ki: 192 nM

## CCCC(C)c1nc(N)nc(N2CCN(C)CC2)n1 (centres unmarked) [Compound 11, 4-(4-Methylpiperazin-1-yl)-6-(pentan-2-yl)-1,3,5-triazin-2-amine]
other
  melting point: 138 to 140 °C
hH4R [1]; antagonist mode
  IC50: 640 ± 49 nM
hH4R [1]
  Kb: 224 nM
hH4R [2]
  cAMP hH4R % of max. Antagonist Activity at 10 µM: 100%
hH4R [3]
  IC50: 97 ± 16 nM
  β-arrestin hH4R % of max. Antagonist Activity at 10 µM: 97%
  Kb: 15.8 nM
[4]
  Ki: 353 nM

## CCC(C)Cc1nc(N)nc(N2CCN(C)CC2)n1 (centres unmarked) [Compound 12, 4-(2-Methylbutyl)-6-(4-methylpiperazin-1-yl)-1,3,5-triazin-2-amine]
other
  melting point: 115 to 116 °C
hH4R [1]; antagonist mode
  IC50: 132 ± 9 nM
hH4R [1]
  Kb: 46.8 nM
hH4R [2]
  cAMP hH4R % of max. Antagonist Activity at 10 µM: 111%
hH4R [3]
  IC50: 38 ± 7 nM
  β-arrestin hH4R % of max. Antagonist Activity at 10 µM: 100%
  Kb: 6.17 nM
[4]
  Ki: 321 nM

## COC(C)Cc1nc(N)nc(N2CCN(C)CC2)n1 (centres unmarked) [Compound 13, 4-(2-Methoxypropyl)-6-(4-methylpiperazin-1-yl)-1,3,5-triazin-2-amine]
other
  melting point: 148 to 151 °C
[4]
  Ki: 4260 nM

## CC(C)CCc1nc(N)nc(N2CCN(C)CC2)n1 [Compound 14, 4-Isopentyl-6-(4-methylpiperazin-1-yl)-1,3,5-triazin-2-amine]
other
  melting point: 123 to 126 °C
hH4R [1]; antagonist mode
  IC50: 43 ± 17 nM
hH4R [1]
  Kb: 13.8 nM
hH4R [2]
  cAMP hH4R % of max. Antagonist Activity at 10 µM: 107%
hH4R [3]
  IC50: 24 ± 3 nM
  β-arrestin hH4R % of max. Antagonist Activity at 10 µM: 101%
  Kb: 3.89 nM
[4]
  Ki: 203 nM

## CC/C=C/c1nc(N)nc(N2CCN(C)CC2)n1 [Compound 15, (E) 4-(But-1-enyl)-6-(4-methylpiperazin-1-yl)-1,3,5-triazin-2-amine]
other
  melting point: 125 to 126 °C
[4]
  Ki: 1490 nM

## C=CCCc1nc(N)nc(N2CCN(C)CC2)n1 [Compound 16, 4-(But-3-enyl)-6-(4-methylpiperazin-1-yl)-1,3,5-triazin-2-amine]
other
  melting point: 132 to 133 °C
hH4R [1]; antagonist mode
  IC50: 635 ± 123 nM
hH4R [1]
  Kb: 219 nM
hH4R [2]
  cAMP hH4R % of max. Antagonist Activity at 10 µM: 104%
hH4R [3]
  IC50: 146 ± 38 nM
  β-arrestin hH4R % of max. Antagonist Activity at 10 µM: 94%
  Kb: 23.4 nM
[4]
  Ki: 319 nM

## C=CCC(C)c1nc(N)nc(N2CCN(C)CC2)n1 (centres unmarked) [Compound 17, 4-(4-Methylpiperazin-1-yl)-6-(pent-4-en-2yl)-1,3,5-triazin-2-amine]
other
  melting point: 134 to 136 °C
hH4R [1]; antagonist mode
  IC50: 721 ± 70 nM
hH4R [1]
  Kb: 257 nM
hH4R [2]
  cAMP hH4R % of max. Antagonist Activity at 10 µM: 94%
hH4R [3]
  IC50: 744 ± 139 nM
  β-arrestin hH4R % of max. Antagonist Activity at 10 µM: 92%
  Kb: 117 nM
[4]
  Ki: 263 nM

## C=CC(C)Cc1nc(N)nc(N2CCN(C)CC2)n1 (centres unmarked) [Compound 18, 4-(2-Methylbut-3-enyl)-6-(4-methylpiperazin-1-yl)-1,3,5-triazin-2-amine]
other
  melting point: 113 to 115 °C
hH4R [1]; antagonist mode
  IC50: 188 ± 45 nM
hH4R [1]
  Kb: 64.6 nM
hH4R [2]
  cAMP hH4R % of max. Antagonist Activity at 10 µM: 104%
hH4R [3]
  IC50: 66.6 ± 3 nM
  β-arrestin hH4R % of max. Antagonist Activity at 10 µM: 101%
  Kb: 11 nM
[4]
  Ki: 262 nM

## CCCCCc1nc(N)nc(N2CCN(C)CC2)n1 [Compound 19, 4-(4-Methylpiperazin-1-yl)-6-pentyl-1,3,5-triazin-2-amine]
other
  melting point: 173 to 178 °C
hH4R [1]; antagonist mode
  IC50: 419 ± 77 nM
hH4R [1]
  Kb: 145 nM
hH4R [2]
  cAMP hH4R % of max. Antagonist Activity at 10 µM: 97%
hH4R [3]
  IC50: 34.9 ± 7 nM
  β-arrestin hH4R % of max. Antagonist Activity at 10 µM: 99%
  Kb: 5.62 nM
[4]
  Ki: 393 nM

## CC/C=C/Cc1nc(N)nc(N2CCN(C)CC2)n1 [Compound 20, (E)-4-(4-Methylpiperazin-1-yl)-6-(pent-2-enyl)-1,3,5-triazin-2-amine]
other
  melting point: 117 to 119 °C
hH4R [3]
  IC50: 376 ± 9 nM
  β-arrestin hH4R % of max. Antagonist Activity at 10 µM: 101%
[4]
  inhibition at 1 µM: 6%

## CN1CCN(c2nc(N)nc(CC3CCCCC3)n2)CC1 [TR-AF-49]
hH4R [1]; antagonist mode
  IC50: 271 ± 11 nM
hH4R [1]
  Kb: 95.5 nM
hH4R [2]
  cAMP hH4R % of max. Antagonist Activity at 10 µM: 98%
hH4R [3]
  IC50: 68 ± 7 nM
  β-arrestin hH4R % of max. Antagonist Activity at 10 µM: 99%
  Kb: 11.2 nM

## S=C(NC1CCCCC1)N1CCC(c2cnc[nH]2)CC1 [Thioperamide, reference compound]
hH4R [1]; at 10 µM, antagonist mode
  cAMP hH4R % of max. Antagonist Activity at 10 µM: 111%
hH4R [3]
  β-arrestin hH4R % of max. Antagonist Activity at 10 µM: 102%
